According to article PMC4284639, “The Escherichia coli effector EspJ blocks Src kinase activity via amidation and ADP ribosylation” (Nature Communications, 2014):

Target: T1, EspJ28-217 (Escherichia coli, UniProt B7ULW8)
T1 construct: gene E2348C_0723; residues 28-217, lacking N-terminal secretion signal; 15N-labelled for NMR
Assay: 1H-15N HSQC NMR titration
Type: binding
Conditions: 0.25 mM 15N-labelled protein, 1 or 10 molar equivalents of NAD+; 50 mM NaPO4 pH 7.4, 200 mM NaCl, 5 mM beta-mercaptoethanol, 10% D2O, 295 K; also ADP-ribose donor with GST-Src (150 uM NAD+ and labelle)

T1 sequence (B7ULW8 entry or part of it): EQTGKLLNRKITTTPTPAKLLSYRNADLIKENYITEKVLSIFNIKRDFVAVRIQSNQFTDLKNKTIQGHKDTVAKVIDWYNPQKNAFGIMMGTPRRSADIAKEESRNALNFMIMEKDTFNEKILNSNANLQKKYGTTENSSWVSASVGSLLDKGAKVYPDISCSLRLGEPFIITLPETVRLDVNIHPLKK

NC(=O)c1ccc[n+]([C@@H]2O[C@H](COP(=O)(O)OP(=O)(O)OC[C@H]3O[C@@H](n4cnc5c(N)ncnc54)[C@H](O)[C@@H]3O)[C@@H](O)[C@H]2O)c1 [NAD^+]
chemical shift perturbation: The addition of NAD^+ caused substantial chemical shift perturbations for several resonances
